The target of test [1] is methionine-enkephalin (Homo sapiens, UniProt P01210). Kind of test: UV spectroscopy binding between compounds: binding to methionine-enkephalin. Further details: M-Enk = methionine-enkephalin; purchased Sigma-Aldrich.
Test [2] can be described thus: UV spectroscopy binding between compounds: binding to amphetamine. Conditions: read-out: Kd @ 200 nm, binding to Amph; UV spectroscopy, pH 7.4 sodium phosphate buffer; single binding constant.
The target of test [3] is T1, insulin receptor (INSR) 157–166 (Homo sapiens, UniProt P06213).
T1 construct: INSR 157–166
Kind of test: UV spectroscopy binding to control peptide INSR 157–166. To be noted: control sequence; read-out: Kd @ 200 nm, INSR 157–166.
Protocol: (§1) After the solutions were made, a 96-well quartz crystal plate was prepared to be run through the spectrophotometer at room temperature (ca. 24 °C). […] The absorbance of each receptor peptide without the presence of the adrenergic compound was measured as well. The absorbance of each well was measured at every 10 nm increment from 190 nm to 260 nm. The maximum absorbance that can be measured was set to four. Each well had 200 μL of solution, so if the absorbance of one component was being measured, it was diluted by half with a phosphate buffer.
(§2) If the measured absorbance is different than the additive absorbance of each compound, then that indicates some sort of molecular interaction. The binding can be quantified by graphing the difference in absorbance against the concentration of the compound varied to provide a binding curve. The data are analyzed by finding the additive absorbance and plotting the difference between this absorbance and the actual absorbance against the concentration of the adrenergic compound. The absorbance for the phosphate buffer is subtracted for each well before any calculations are done. […] The binding constants were estimated from the half-saturation point.

A short description of test [4]: UV spectroscopy binding between compounds: binding to riboflavin. To be noted: pH 7.4 sodium phosphate buffer, read-out: Kd @ 200 nm, binding to Ribo.
Test [5] can be described thus: UV spectroscopy binding between compounds: binding to naloxone. To be noted: pH 7.4 sodium phosphate buffer, read-out: Kd @ 200 nm, binding to NAL.
Test [6] is described as follows: UV spectroscopy binding between compounds: binding to ascorbic acid. Conditions: read-out: Kd @ 200 nm, binding to Asc, pH 7.4 sodium phosphate buffer.
Test [7] has as its target T2, insulin receptor (INSR) 281–299 (Homo sapiens, UniProt P06213).
T2 construct: INSR 281–299
Kind of test: UV spectroscopy binding to control peptide INSR 281–299. To be noted: control sequence; read-out: Kd @ 200 nm, INSR 281–299.
Protocol: as §1, §2

Test [8] is described as follows: UV spectroscopy binding between compounds: binding to morphine sulfate.
Test [9] in a line: UV spectroscopy binding between compounds: binding to methadone. To be noted: pH 7.4 sodium phosphate buffer, read-out: Kd @ 200 nm, binding to Meth.
Test [10] can be described thus: UV spectroscopy binding between compounds: binding to propranolol.
A short description of test [11]: UV spectroscopy binding between compounds: binding to glucose. To be noted: read-out: Kd @ 200 nm, binding to Glucose, pH 7.4 sodium phosphate buffer.
The target of test [12] is T3, intact mu opioid receptors (muOPRs) (Homo sapiens, UniProt P35372). The class given is binding. Details: intact mu opioid receptors (muOPRs); deca-histidine tag (N); made in house; host or cells: E. coli C43 (DE3).
The target in test [13] is T4, beta 2 adrenergic receptor (B2AR) 175–188 (Homo sapiens, UniProt P07550).
T4 construct: B2AR 175–188
Kind of test: UV spectroscopy binding to receptor peptide B2AR 175–188.
Protocol: as §1, §2

Test [14] addresses T5, dopamine D1 receptor (D1DR) 89–98 (Homo sapiens, UniProt P21728).
T5 construct: D1DR 89–98
In words: UV spectroscopy binding to receptor peptide D1DR 89–98.
Protocol: as §1, §2

Test [15] concerns the target T6, dopamine D1 receptor (D1DR) 170–188 (Homo sapiens, UniProt P21728).
T6 construct: D1DR 170–188
Kind of test: UV spectroscopy binding to receptor peptide D1DR 170–188.
Protocol: as §1, §2

The target in test [16] is T7, beta 2 adrenergic receptor (B2AR) 97–103 (Homo sapiens, UniProt P07550).
T7 construct: B2AR 97–103
In words: UV spectroscopy binding to receptor peptide B2AR 97–103.
Protocol: as §1, §2

Test [17] concerns the target histamine type 1 receptor (H1HR) 77–87 (Homo sapiens, UniProt P35367). Conditions: single binding constant; read-out: Kd @ 200 nm, H1HR 77–87.
Protocol: as §1, §2
The target of test [18] is mu opioid receptor (muOPR) peptide 38–51 (Homo sapiens, UniProt P35372).
Protocol: as §1, §2
Test [19] addresses T3, intact mu opioid receptors (muOPRs). Conditions: cited from earlier work.
Setting [20] is: Kd @ 200 nm, binding to M-Enk, UV spectroscopy, pH 7.4 sodium phosphate buffer, single binding constant.
Where [21] appears, read: read-out: Kd @ 200 nm, binding to Morph, UV spectroscopy, pH 7.4 sodium phosphate buffer, single binding constant.
Where [22] appears, read: read-out: Kd @ 200 nm, binding to Prop, UV spectroscopy, pH 7.4 sodium phosphate buffer, single binding constant.
Where [23] appears, read: single binding constant, read-out: Kd @ 200 nm, B2AR 175–188.
Where [24] appears, read: read-out: Kd @ 200 nm, B2AR 97–103.

Structures can show the parent of a compound that is named as a salt. Where two headings read alike, the source gives them in different places.

These results are taken from publication PMC6747318, “Mutual Enhancement of Opioid and Adrenergic Receptors by Combinations of Opioids and Adrenergic Ligands Is Reflected in Molecular Complementarity of Ligands: Drug Development Possibilities” (International Journal of Molecular Sciences, 2019).

As a reminder, the Kd is a measure of binding affinity in units of concentration.

T3 sequence (P35372 whole entry): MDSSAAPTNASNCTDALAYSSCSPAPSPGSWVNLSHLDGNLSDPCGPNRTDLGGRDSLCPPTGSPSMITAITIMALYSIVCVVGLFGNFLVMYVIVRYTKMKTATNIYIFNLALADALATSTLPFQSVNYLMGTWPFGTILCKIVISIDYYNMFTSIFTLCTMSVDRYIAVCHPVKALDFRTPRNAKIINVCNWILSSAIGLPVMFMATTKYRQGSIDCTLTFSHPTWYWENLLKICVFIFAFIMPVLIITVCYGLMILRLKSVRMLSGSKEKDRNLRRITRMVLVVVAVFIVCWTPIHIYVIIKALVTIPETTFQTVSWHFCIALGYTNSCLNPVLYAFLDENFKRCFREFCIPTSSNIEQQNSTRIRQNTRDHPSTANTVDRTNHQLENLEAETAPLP

Take `CNC[C@H](O)c1ccc(O)c(O)c1` [Epinephrine HCl]: the dissociation constant (Kd) was 5.8 µM in test [1] (Kd @ 200 nm, binding to M-Enk, high affinity binding, double curve, first value); 40 µM in [1] (read-out: Kd @ 200 nm, binding to M-Enk, low affinity binding, double curve, second value); 4.5 µM in test [2]; greater than 1000 µM in test [3]; greater than 1000 µM in test [4]; 100 µM in test [5]. The Kd in test [6] came to 90 µM; in test [7], 200 µM; in test [8] (read-out: Kd @ 200 nm, binding to Morph, high affinity binding, double curve, first value), 0.3 µM; in test [8] (read-out: Kd @ 200 nm, binding to Morph, low affinity binding, double curve, second value) it was 40 µM; in test [9], 300 µM; in [10] (read-out: Kd @ 200 nm, binding to Prop, high affinity binding, double curve, first value), 45 µM. The Kd in test [10] (read-out: Kd @ 200 nm, binding to Prop, low affinity binding, double curve, second value) is 1000 µM; in test [11] it was greater than 1000 µM. For the same molecule, the “ligand binding to intact muOPRs” value in [12] is reported as “bound at mid-micromolar concentrations”.
Consider `CC(=O)OCC[N+](C)(C)C` [Acetylcholine], for which the Kd in [1] (setting [20]) is 80 µM; in [13] it was greater than 1000 µM; in test [14], greater than 1000 µM; in [2], greater than 1000 µM; in [4], greater than 1000 µM; in test [15], greater than 1000 µM. The Kd in test [5], in test [6], in [16], in test [8] (setting [21]), in [9] and in test [10] (setting [22]) was greater than 1000 µM in each case. Also, the dissociation constant Kd in test [11] is greater than 1000 µM. The “ligand binding to intact muOPRs” value in [12] is recorded as “no observable bind”.
As to `NCCc1c[nH]c2ccc(O)cc12` [Serotonin], the Kd in test [1] (setting [20]) is 45 µM; in test [13] (setting [23]) it was greater than 1000 µM; in test [2], greater than 1000 µM; in test [3], 110 µM; in test [4] it was 7 µM; in test [17], 75 µM. The dissociation constant (Kd) was 60 µM in [5]; greater than 1000 µM in [6]; 120 µM in [16] (setting [24]); 900 µM in [7]; 0.7 µM in test [8] (setting [21]); 45 µM in test [9]. For the same molecule, the Kd is 100 µM in test [10] (setting [22]) and greater than 1000 µM in [11].
Regarding `NCCc1c[nH]cn1` [Histamine], the Kd in test [1] (setting [20]) is greater than 1000 µM; in test [13] (setting [23]), greater than 1000 µM; in [2], 70 µM; in [3], 110 µM; in test [4], greater than 1000 µM; in test [5] it was 210 µM. In addition, the dissociation constant Kd in [6] was greater than 1000 µM; in [16] (setting [24]) it was greater than 1000 µM; in test [7] it was greater than 1000 µM; in [8] (setting [21]), greater than 1000 µM; in [9], greater than 1000 µM; in test [10] (setting [22]), 110 µM. In test [11], the Kd is greater than 1000 µM. The “binding to Mu 38–51” value in test [18] is reported as “no binding”. The “binding to intact muOPRs” value in test [19] is reported as “does not bind”.
